Reference: article PMC4512978, “Synthesis and evaluation in rats of homologous series of [^18F]-labeled dopamine D2/3 receptor agonists based on the 2-aminomethylchroman scaffold as potential PET tracers” (EJNMMI Research, 2015)

Tested on: D2/3R
Assay: Kinetic analysis of PET data (1TCM, 2TCM, Logan, SRTM);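 on 2TCM BPND change relative to control: Raclopride 1 mg/kg intravenous pretreatment versus saline controls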;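 on SRTM BPND change relative to control: Raclopride 1 mg/kg intravenous pretreatment versus saline controls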
Type: in vivo, Sprague-Dawley rats
Set-up: key to SRTM BPND / 1TCM BPND / 2TCM BPND (VT-based): BPND = VT(target)/VT(cerebellum) − 1 (or SRTM, cerebellum reference); SRTM BPND change relative to control / 1TCM BPND change relative to control / 2TCM BPND change relative to control / Logan BPND change relative to control: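 Raclopride 1 mg/kg intravenous pretreatment versus saline controls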; 1TCM VT / 2TCM VT: unit not given here
Description: Kinetic analysis is described using the nomenclature proposed by Innis et al.. ROI TACs of [^18F]FEt-AMC13 were analyzed with one-tissue and two-tissue compartmental models of reversible binding (1TCM and 2TCM, respectively) to obtain individual rate constants. From these, the regional distribution volumes (VT) were calculated and compared to those obtained with Logan graphical analysis. Binding potentials (BPND) were calculated from the distribution ratios as VT (target) / VT (cerebellum) – 1, or estimated with the simplified reference tissue model (SRTM) using the cerebellum as reference region.
Metabolite-corrected plasma-derived arterial input function and whole blood time-activity curve were used for Logan, 1TCM, and 2TCM analyses. Fractional cerebral blood volume was set to 3.6 % [27]. For one rat in the raclopride-treated group, no input curves could be obtained; therefore, its PET data were only analyzed with SRTM.
Degree of D2/3R-specific binding of the tracers was characterized by BPND (as given above) or the specific binding ratio (SBR) given as target region activity/cerebellar activity - 1. Both were calculated under control conditions and in response to the raclopride challenge.

[1] = Brainstem, raclopride, listed as [18F]FEt-AMC13

1TCM VT (Brainstem, control): 5.67±0.33 | 2TCM VT (Brainstem, control): 6.17±0.52 | Logan VT (Brainstem, control): 6.12±0.57 | 1TCM VT (Brainstem, raclopride): 4.99±0.56 | 2TCM VT (Brainstem, raclopride): 5.46±0.36 | Logan VT (Brainstem, raclopride): 5.53±0.26 | 1TCM VT (Cerebellum, control): 4.68±0.34 | 2TCM VT (Cerebellum, control): 5.08±0.49 | Logan VT (Cerebellum, control): 5.06±0.53 | 1TCM VT (Cerebellum, raclopride): 4.43±0.40 | 2TCM VT (Cerebellum, raclopride): 4.96±0.44 | Logan VT (Cerebellum, raclopride): 4.99±0.30 | 1TCM VT (Cortex, control): 5.53±0.38 | 2TCM VT (Cortex, control): 5.75±0.45 | Logan VT (Cortex, control): 5.69±0.49
SMILES: Oc1ccc2c(c1)O[C@@H](CNCc1ccc(OCC[18F])cc1)CC2 [[^18F]FEt-AMC13]
fall of striatal BPND (1 mg/kg raclopride, depending on the kinetic model): 18–27% | 1TCM BPND (Brainstem, control): 0.21±0.03 | 2TCM BPND (VT-based) (Brainstem, control): 0.22 ± 0.02 | Logan BPND (Brainstem, control): 0.21±0.02 | SRTM BPND (Brainstem, control): 0.18 ± 0.04 | 1TCM K1 (Brainstem, control rat A): 0.63 ± 0.04 mL/g/min | 1TCM k2 (Brainstem, control rat A): 0.10 ± 0.02 min⁻¹ | 2TCM K1 (Brainstem, control rat A): 2.03 ± 0.40 mL/g/min | 2TCM k2 (Brainstem, control rat A): 3.53 ± 1.32 min⁻¹ | 2TCM k3 (Brainstem, control rat A): 1.05 ± 0.19 min⁻¹ | 2TCM k4 (Brainstem, control rat A): 0.10 ± 0.01 min⁻¹ | 1TCM K1 (Brainstem, control rat B): 0.60 ± 0.03 mL/g/min | 1TCM k2 (Brainstem, control rat B): 0.11 ± 0.01 min⁻¹ | 2TCM K1 (Brainstem, control rat B): 0.96 ± 0.11 mL/g/min | 2TCM k2 (Brainstem, control rat B): 0.89 ± 0.30 min⁻¹ | 2TCM k3 (Brainstem, control rat B): 0.72 ± 0.83 min⁻¹ | 2TCM k4 (Brainstem, control rat B): 0.15 ± 1.20 min⁻¹ | 1TCM K1 (Brainstem, control rat C): 0.68 ± 0.02 mL/g/min | 1TCM k2 (Brainstem, control rat C): 0.12 ± 0.01 min⁻¹ | 2TCM K1 (Brainstem, control rat C): 1.11 ± 0.22 mL/g/min | 2TCM k2 (Brainstem, control rat C): 1.19 ± 0.59 min⁻¹ | 2TCM k3 (Brainstem, control rat C): 1.10 ± 1.86 min⁻¹ | 2TCM k4 (Brainstem, control rat C): 0.21 ± 2.66 min⁻¹ | 1TCM K1 (Brainstem, control rat D): 0.71 ± 0.03 mL/g/min | 1TCM k2 (Brainstem, control rat D): 0.13 ± 0.01 min⁻¹ | 2TCM K1 (Brainstem, control rat D): 4.75 ± 5.87 mL/g/min | 2TCM k2 (Brainstem, control rat D): 19.6 ± 19.9 min⁻¹ | 2TCM k3 (Brainstem, control rat D): 2.79 ± 15.04 min⁻¹ | 2TCM k4 (Brainstem, control rat D): 0.12 ± 37.81 min⁻¹ | 1TCM BPND (Brainstem, raclopride): 0.13±0.03 | 1TCM BPND change relative to control (Brainstem, raclopride): -41% | 2TCM BPND (VT-based) (Brainstem, raclopride): 0.10 ± 0.02 | 2TCM BPND change relative to control (Brainstem, raclopride): −53% | Logan BPND (Brainstem, raclopride): 0.11±0.02 | Logan BPND change relative to control (Brainstem, raclopride): -47% | SRTM BPND (Brainstem, raclopride): 0.07 ± 0.03 | SRTM BPND change relative to control (Brainstem, raclopride): −60% | 2TCM BPND (VT-based) [1]: 0.10±0.02 | 2TCM BPND change relative to control [1]: -53% | SRTM BPND [1]: 0.07±0.03 | SRTM BPND change relative to control [1]: –60% | 1TCM K1 (Cerebellum, control rat A): 0.57 ± 0.04 mL/g/min | 1TCM k2 (Cerebellum, control rat A): 0.11 ± 0.02 min⁻¹ | 2TCM K1 (Cerebellum, control rat A): 2.10 ± 0.32 mL/g/min | 2TCM k2 (Cerebellum, control rat A): 4.90 ± 1.30 min⁻¹ | 2TCM k3 (Cerebellum, control rat A): 1.23 ± 0.13 min⁻¹ | 2TCM k4 (Cerebellum, control rat A): 0.10 ± 0.005 min⁻¹ | 1TCM K1 (Cerebellum, control rat B): 0.61 ± 0.02 mL/g/min | 1TCM k2 (Cerebellum, control rat B): 0.13 ± 0.01 min⁻¹ | 2TCM K1 (Cerebellum, control rat B): 0.81 ± 0.05 mL/g/min | 2TCM k2 (Cerebellum, control rat B): 0.53 ± 0.24 min⁻¹ | 2TCM k3 (Cerebellum, control rat B): 0.46 ± 0.55 min⁻¹ | 2TCM k4 (Cerebellum, control rat B): 0.20 ± 0.71 min⁻¹ | 1TCM K1 (Cerebellum, control rat C): 0.62 ± 0.01 mL/g/min | 1TCM k2 (Cerebellum, control rat C): 0.13 ± 0.01 min⁻¹ | 2TCM K1 (Cerebellum, control rat C): 0.86 ± 0.21 mL/g/min | 2TCM k2 (Cerebellum, control rat C): 1.13 ± 1.45 min⁻¹ | 2TCM k3 (Cerebellum, control rat C): 1.84 ± 1.78 min⁻¹ | 2TCM k4 (Cerebellum, control rat C): 0.34 ± 0.12 min⁻¹ | 1TCM K1 (Cerebellum, control rat D): 0.68 ± 0.03 mL/g/min | 1TCM k2 (Cerebellum, control rat D): 0.16 ± 0.02 min⁻¹ | 2TCM K1 (Cerebellum, control rat D): 48.7 ± 819.7 mL/g/min | 2TCM k2 (Cerebellum, control rat D): 298 ± 5152 min⁻¹ | 2TCM k3 (Cerebellum, control rat D): 3.55 ± 1.05 min⁻¹ | 2TCM k4 (Cerebellum, control rat D): 0.13 ± 0.03 min⁻¹ | 1TCM BPND (Cortex, control): 0.18±0.05 | 2TCM BPND (VT-based) (Cortex, control): 0.13 ± 0.04 | Logan BPND (Cortex, control): 0.13±0.03 | SRTM BPND (Cortex, control): 0.11 ± 0.03 | 1TCM K1 (Cortex, control rat A): 0.37 ± 0.02 mL/g/min | 1TCM k2 (Cortex, control rat A): 0.06 ± 0.01 min⁻¹ | 2TCM K1 (Cortex, control rat A): 1.68 ± 0.46 mL/g/min | 2TCM k2 (Cortex, control rat A): 7.83 ± 1.43 min⁻¹ | 2TCM k3 (Cortex, control rat A): 1.84 ± 0.62 min⁻¹ | 2TCM k4 (Cortex, control rat A): 0.06 ± 4.47 min⁻¹ | 1TCM K1 (Cortex, control rat B): 0.47 ± 0.02 mL/g/min | 1TCM k2 (Cortex, control rat B): 0.09 ± 0.01 min⁻¹ | 2TCM K1 (Cortex, control rat B): 0.66 ± 0.04 mL/g/min | 2TCM k2 (Cortex, control rat B): 0.64 ± 0.21 min⁻¹ | 2TCM k3 (Cortex, control rat B): 0.72 ± 0.24 min⁻¹ | 2TCM k4 (Cortex, control rat B): 0.16 ± 0.02 min⁻¹ | 1TCM K1 (Cortex, control rat C): 0.41 ± 0.01 mL/g/min | 1TCM k2 (Cortex, control rat C): 0.07 ± 0.002 min⁻¹ | 2TCM K1 (Cortex, control rat C): 0.43 ± 0.12 mL/g/min
